Values quoted from earlier work, collected in US20110230549A1, “PHARMACEUTICAL COMPOSITIONS FOR THE TREATMENT OF PAIN” (GW Pharma Limited, priority 2005, published 2011).

How the values were obtained:
[1] = system: PBQ-induced writhing in mice; settings: compared among cannabinoids and pre-cursors
[2] = system: patient with familial Mediterranean fever; settings: 50 mg

Compound	Effectiveness at reducing analgesia and inflammation [1]	Inhibition of PBQ-induced writhing in mice ([1]; oral administration)	Amount of analgesia that the patient required [2]
CCCCCc1cc(O)c2c(c1)OC(C)(C)c1ccc(C)cc1-2 [CBN]	least effective	–	–
C=C(C)[C@@H]1CCC(C)=C[C@H]1c1c(O)cc(CCCCC)cc1O [CBD, cannabidiol]	–	most effective	–
CCCCCc1cc(O)c2c(c1)OC(C)(C)[C@@H]1CCC(C)=C[C@@H]21 [THC, delta-9-tetrahydrocannabinol]	least effective	–	highly significant reduction
